Patent publication US9889099B2, “Method and composition for enhancing milk production” (LAND O'LAKES, INC., priority 1999, dated 2018)
Marks after values point to notes of the source that are not given here.

Tests used:
lactating cows = experiment: Example 2: 3x3 Latin square feeding of lactating cows, control ration plus about 50 or 100 g sorbitol per day; format: in vivo, Holstein cows; conditions: for Milk Protein / Lactose / Total Solids / Dry Matter Intake / Milk Production: last 14 of 28 days
From the text: In this example, fifteen Holstein cows (nine multiparous and six primiparous) averaging about sixty-five days in milk each, and thus in early lactation, were arranged in a 3×3 Latin square design, also known as the switch back design, that was replicated five times. Each cow was randomly allotted to the control ration treatment, to the first test ration treatment, or to the second test ration treatment. In the 3×3 Latin square design, each cow is cycled through each treatment, namely, the control ration treatment, the first test ration treatment, and the second test ration treatment. This permits each cow to act as a control for standardizing the testing differences observed between each treatment for each cow. Sufficient time between feeding treatments (between the control ration treatment, the first ration test treatment, and the second test ration treatment) was allowed to permit normalization of each cow before being switched to a different treatment. The cows were blocked by parity milk production, based upon the level of milk production by individual cows, after being in milk for forty-five days. After being blocked by parity milk production, the cows were randomly allotted to the control ration feeding, the first test ration feeding, or the second test ration feeding. The components of the control ration used in this example are shown in Table 5: The control ration was placed in the feeding troughs of the cattle once daily in the morning. When the first test ration was to be provided to the test cattle, sorbitol was top dressed and lightly mixed into the control ration in the feeding trough of each cow being supplied with the first test ration dosage of about 50 grams of sorbitol per cow per day, about one hour after the control ration was placed in the feeding trough. When the second test ration was to be provided to the test cattle, sorbitol was top dressed and lightly mixed into the control ration in the feeding trough of each cow being supplied with the second test ration dosage of about 100 grams of sorbitol per cow per day, about one hour after the control ration was placed in the feeding trough. Then, the control ration, the first test ration, and the second test ration were lightly mixed in front of the cows six times per day to encourage additional feed ingestion by the cattle. Leftover rations from the previous days feeding were collected and weighed from each feeding trough prior to feeding the test cattle the next day. The cows received a sufficient amount of the control ration to ensure that at least about ten weight percent, based upon the amount of control ration provided at the beginning of each day, remained per day for each test cow. The amount of sorbitol that was top dressed in the control ration to form the first test ration was adjusted upward to account for the excess of control ration provided to ensure that the cows ingested the first test ration dosage of about 50 grams of sorbitol per cow per day. Likewise, the amount of sorbitol that was top dressed in the control ration to form the second test ration was adjusted upward to account for the excess of control ration provided to ensure that the cows ingested the second test ration dosage of about 100 grams of sorbitol per cow per day. Feed refusals were measured daily, and water was supplied ad libitum. Each test cow received routine care and management consistent with appropriate recommendations in the Guide for the Care and Use of Agricultural Animals in Agricultural Research and Teaching (1st edition, March 1988). Each cow was milked three times daily and the weight of produced milk was recorded at each milking. The milk was sampled once per day (⅓ of the sample volume from each milking) and was analyzed for protein, fat, lactose, and total solids, in accordance with the property determination and characterization techniques presented above. […]

[1] = Passage of orally fed sorbitol through the rumen into the abomasum; format: in vivo, ruminant; conditions: within about six to about eight hours after entering the rumen; based on total amount orally fed

OC[C@@H](O)[C@@H](O)[C@H](O)[C@@H](O)CO [sorbitol]
Milk Protein (lactating cows; about 50 g sorbitol/day/cow, Block 1, control 2.23, P >0.10): 2.22 pounds/day/cow | Lactose (lactating cows; about 50 g sorbitol/day/cow, Block 1, control 3.99, P >0.10): 4.10 pounds/day/cow | Total Solids (lactating cows; about 50 g sorbitol/day/cow, Block 1, control 9.51, P >0.10): 9.77 pounds/day/cow | Dry Matter Intake (lactating cows; about 50 g sorbitol/day/cow, Block 1, control 45.0, P >0.10): 44.2 pounds/day/cow | Milk Protein (lactating cows; about 50 g sorbitol/day/cow, Block 2, control 2.13, P >0.10): 2.18 pounds/day/cow | Lactose (lactating cows; about 50 g sorbitol/day/cow, Block 2, control 3.72, P 0.07): 3.89^b pounds/day/cow | Total Solids (lactating cows; about 50 g sorbitol/day/cow, Block 2, control 8.95, P >0.10): 9.48 pounds/day/cow | Dry Matter Intake (lactating cows; about 50 g sorbitol/day/cow, Block 2, control 42.9, P 0.04): 45.3^b pounds/day/cow | Milk Production (lactating cows; about 50 g sorbitol/day/cow, Block 2, control 75.3, P 0.10): 78.0^b pounds/day/cow | Milk Protein (lactating cows; about 50 g sorbitol/day/cow, Block 3, control 2.62, P >0.10): 2.89 pounds/day/cow | Lactose (lactating cows; about 50 g sorbitol/day/cow, Block 3, control 4.32, P >0.10): 4.84 pounds/day/cow | Total Solids (lactating cows; about 50 g sorbitol/day/cow, Block 3, control 10.70, P >0.10): 11.53 pounds/day/cow | Dry Matter Intake (lactating cows; about 50 g sorbitol/day/cow, Block 3, control 54.4, P 0.10): 60.7^b pounds/day/cow | Milk Production (lactating cows; about 50 g sorbitol/day/cow, Block 3, control 89.0, P 0.28): 98.8 pounds/day/cow | Milk Protein (lactating cows; about 50 g sorbitol/day/cow, Block 4, control 2.83, P 0.08): 3.18^b pounds/day/cow | Lactose (lactating cows; about 50 g sorbitol/day/cow, Block 4, control 4.56, P 0.06): 4.88^b pounds/day/cow | Total Solids (lactating cows; about 50 g sorbitol/day/cow, Block 4, control 11.46, P 0.09): 12.35^b pounds/day/cow | Dry Matter Intake (lactating cows; about 50 g sorbitol/day/cow, Block 4, control 61.0, P >0.10): 62.6 pounds/day/cow | Milk Production (lactating cows; about 50 g sorbitol/day/cow, Block 4, control 97.6, P 0.07): 102.9^b pounds/day/cow | Milk Protein (lactating cows; about 50 g sorbitol/day/cow, Block 5, control 3.35, P >0.10): 3.39 pounds/day/cow | Lactose (lactating cows; about 50 g sorbitol/day/cow, Block 5, control 5.70, P 0.05): 5.86^b pounds/day/cow | Total Solids (lactating cows; about 50 g sorbitol/day/cow, Block 5, control 13.46, P >0.10): 13.83 pounds/day/cow | Dry Matter Intake (lactating cows; about 50 g sorbitol/day/cow, Block 5, control 65.1, P >0.10): 66.6 pounds/day/cow | Milk Production (lactating cows; about 50 g sorbitol/day/cow, Block 5, control 119.1, P 0.10): 122.4^b pounds/day/cow | Milk Protein (lactating cows; about 50 g sorbitol/day/cow, all cows, control 2.63, P >0.10): 2.77 pounds/day/cow | Lactose (lactating cows; about 50 g sorbitol/day/cow, all cows, control 4.46, P 0.04): 4.71^b pounds/day/cow | Total Solids (lactating cows; about 50 g sorbitol/day/cow, all cows, control 10.82, P 0.07): 11.39^b pounds/day/cow | Dry Matter Intake (lactating cows; about 50 g sorbitol/day/cow, all cows, control 53.7, P 0.05): 55.9^b pounds/day/cow | Milk Production (lactating cows; about 50 g sorbitol/day/cow, all cows, control 92.9, P 0.05): 97.5^b pounds/day/cow | Milk Protein (lactating cows; about 50 g sorbitol/day/cow, multiparous cows only, control 2.93, P 0.08): 3.15^b pounds/day/cow | Lactose (lactating cows; about 50 g sorbitol/day/cow, multiparous cows only, control 4.86, P 0.07): 5.19^b pounds/day/cow | Total Solids (lactating cows; about 50 g sorbitol/day/cow, multiparous cows only, control 11.87, P >0.10): 12.57 pounds/day/cow | Dry Matter Intake (lactating cows; about 50 g sorbitol/day/cow, multiparous cows only, control 60.2, P 0.09): 63.3^b pounds/day/cow | Milk Production (lactating cows; about 50 g sorbitol/day/cow, multiparous cows only, control 101.9, P 0.07): 108.0^b pounds/day/cow | Milk Protein (lactating cows; about 50 g sorbitol/day/cow, primiparous cows only, control 2.18, P >0.10): 2.20 pounds/day/cow | Lactose (lactating cows; about 50 g sorbitol/day/cow, primiparous cows only, control 3.85, P >0.10): 3.99 pounds/day/cow | Total Solids (lactating cows; about 50 g sorbitol/day/cow, primiparous cows only, control 9.23, P >0.10): 9.63 pounds/day/cow | Dry Matter Intake (lactating cows; about 50 g sorbitol/day/cow, primiparous cows only, control 44.0, P >0.10): 44.7 pounds/day/cow | Milk Production (lactating cows; about 50 g sorbitol/day/cow, primiparous cows only, control 79.5, P >0.10): 81.8 pounds/day/cow | Milk Protein (lactating cows; about 100 g sorbitol/day/cow, Block 1, control 2.23, P >0.10): 2.19 pounds/day/cow | Lactose (lactating cows; about 100 g sorbitol/day/cow, Block 1, control 3.99, P >0.10): 4.07 pounds/day/cow | Total Solids (lactating cows; about 100 g sorbitol/day/cow, Block 1, control 9.51, P >0.10): 9.94 pounds/day/cow | Dry Matter Intake (lactating cows; about 100 g sorbitol/day/cow, Block 1, control 45.0, P >0.10): 44.4 pounds/day/cow | Milk Production (lactating cows; about 100 g sorbitol/day/cow, Block 1, control 83.7, P >0.10): 85.2 pounds/day/cow | Milk Protein (lactating cows; about 100 g sorbitol/day/cow, Block 2, control 2.13, P >0.10): 2.12 pounds/day/cow | Lactose (lactating cows; about 100 g sorbitol/day/cow, Block 2, control 3.72, P 0.07): 3.82^ab pounds/day/cow | Total Solids (lactating cows; about 100 g sorbitol/day/cow, Block 2, control 8.95, P >0.10): 9.29 pounds/day/cow | Dry Matter Intake (lactating cows; about 100 g sorbitol/day/cow, Block 2, control 42.9, P 0.04): 42.6^ab pounds/day/cow | Milk Production (lactating cows; about 100 g sorbitol/day/cow, Block 2, control 75.3, P 0.10): 77.1^ab pounds/day/cow | Milk Protein (lactating cows; about 100 g sorbitol/day/cow, Block 3, control 2.62, P >0.10): 2.85 pounds/day/cow | Lactose (lactating cows; about 100 g sorbitol/day/cow, Block 3, control 4.32, P >0.10): 4.86 pounds/day/cow | Total Solids (lactating cows; about 100 g sorbitol/day/cow, Block 3, control 10.70, P >0.10): 11.62 pounds/day/cow | Dry Matter Intake (lactating cows; about 100 g sorbitol/day/cow, Block 3, control 54.4, P 0.10): 60.1^ab pounds/day/cow | Milk Production (lactating cows; about 100 g sorbitol/day/cow, Block 3, control 89.0, P 0.28): 99.0 pounds/day/cow | Milk Protein (lactating cows; about 100 g sorbitol/day/cow, Block 4, control 2.83, P 0.08): 3.01^ab pounds/day/cow | Lactose (lactating cows; about 100 g sorbitol/day/cow, Block 4, control 4.56, P 0.06): 4.57^ab pounds/day/cow | Total Solids (lactating cows; about 100 g sorbitol/day/cow, Block 4, control 11.46, P 0.09): 11.01^ab pounds/day/cow | Dry Matter Intake (lactating cows; about 100 g sorbitol/day/cow, Block 4, control 61.0, P >0.10): 61.2 pounds/day/cow | Milk Production (lactating cows; about 100 g sorbitol/day/cow, Block 4, control 97.6, P 0.07): 95.9^ab pounds/day/cow | Milk Protein (lactating cows; about 100 g sorbitol/day/cow, Block 5, control 3.35, P >0.10): 3.36 pounds/day/cow | Lactose (lactating cows; about 100 g sorbitol/day/cow, Block 5, control 5.70, P 0.05): 5.78^ab pounds/day/cow | Total Solids (lactating cows; about 100 g sorbitol/day/cow, Block 5, control 13.46, P >0.10): 13.78 pounds/day/cow | Dry Matter Intake (lactating cows; about 100 g sorbitol/day/cow, Block 5, control 65.1, P >0.10): 65.8 pounds/day/cow | Milk Production (lactating cows; about 100 g sorbitol/day/cow, Block 5, control 119.1, P 0.10): 121.0^ab pounds/day/cow | Milk Protein (lactating cows; about 100 g sorbitol/day/cow, all cows, control 2.63, P >0.10): 2.71 pounds/day/cow | Lactose (lactating cows; about 100 g sorbitol/day/cow, all cows, control 4.46, P 0.04): 4.62^ab pounds/day/cow | Total Solids (lactating cows; about 100 g sorbitol/day/cow, all cows, control 10.82, P 0.07): 11.12^ab pounds/day/cow | Dry Matter Intake (lactating cows; about 100 g sorbitol/day/cow, all cows, control 53.7, P 0.05): 54.8^ab pounds/day/cow | Milk Production (lactating cows; about 100 g sorbitol/day/cow, all cows, control 92.9, P 0.05): 95.6^ab pounds/day/cow | Milk Protein (lactating cows; about 100 g sorbitol/day/cow, multiparous cows only, control 2.93, P 0.08): 3.07^ab pounds/day/cow | Lactose (lactating cows; about 100 g sorbitol/day/cow, multiparous cows only, control 4.86, P 0.07): 5.07^ab pounds/day/cow | Total Solids (lactating cows; about 100 g sorbitol/day/cow, multiparous cows only, control 11.87, P >0.10): 12.13 pounds/day/cow | Dry Matter Intake (lactating cows; about 100 g sorbitol/day/cow, multiparous cows only, control 60.2, P 0.09): 62.3^ab pounds/day/cow | Milk Production (lactating cows; about 100 g sorbitol/day/cow, multiparous cows only, control 101.9, P 0.07): 105.3^ab pounds/day/cow | Milk Protein (lactating cows; about 100 g sorbitol/day/cow, primiparous cows only, control 2.18, P >0.10): 2.16 pounds/day/cow | Lactose (lactating cows; about 100 g sorbitol/day/cow, primiparous cows only, control 3.85, P >0.10): 3.95 pounds/day/cow | Total Solids (lactating cows; about 100 g sorbitol/day/cow, primiparous cows only, control 9.23, P >0.10): 9.62 pounds/day/cow | Dry Matter Intake (lactating cows; about 100 g sorbitol/day/cow, primiparous cows only, control 44.0, P >0.10): 43.5 pounds/day/cow | Milk Production (lactating cows; about 100 g sorbitol/day/cow, primiparous cows only, control 79.5, P >0.10): 81.2 pounds/day/cow | improvement of milk production rate versus cows fed only the control ration (lactating cows; first test ration, about 50 g sorbitol per day, all cows): 4.6 pounds per day per cow | improvement of milk production rate versus cows fed only the control ration (lactating cows; second test ration, about 100 g sorbitol per day, all cows): 2.7 pounds per day per cow | share of orally fed sugar alcohol passing through the rumen into the abomasum [1]: at least 50 weight percent
